{
  "source": "patent US20260070895A1",
  "about": "“CRYSTALLINE FORMS” (QUIMATRYX, S.L., priority 2022, published 2026)",
  "assay": "Photostability at solid state (chemical purity by HPLC after illumination)",
  "assay_type": "physicochemical",
  "conditions": "solid-state; for degradation (in words): up to 171 hours",
  "method": "The method for determining purity by HPLC—used throughout these examples—used the following parameters:\nThe photostability of novel crystalline forms of QTX125 was assessed at solid state and in solution. Where ‘forced illumination’ conditions were used, samples were illuminated at 12 Klux/hour and 2.8 UV W/m^2/hour. Samples were stored at a temperature of 30° C. Following incubation, the chemical purity of QTX125 was measured by HPLC.\nThe following index is provided to aid navigation of the data presented in Tables 3.1.1 to 3.3.6: • 3.1.x—Assessment of the photostability of QTX125 Form 2. • 3.2.x—Assessment of the photostability of amorphous QTX125. • 3.3.x—Assessment of the photostability of the QTX125 1:2 L-Lysine adduct. • 3.x.1—Samples (at solid state) stored in unsealed clear glass bottles, subject to forced illumination. • 3.x.2—Samples (at solid state) sealed under nitrogen in clear glass bottles, subject to forced illumination. • 3.x.3—Samples (at solid state) sealed under nitrogen in amber glass bottles, illuminated under ambient laboratory conditions • 3.x.4—Samples (at solid state) sealed under nitrogen in amber glass bottles, subject to forced illumination. • 3.x.5—Samples (in solution) sealed under nitrogen in amber glass bottles, illuminated under ambient laboratory conditions. • 3.x.6—Samples (in solution) sealed under nitrogen in amber glass bottles, subject to forced illumination.",
  "key": {"[1]": {"conditions": "sealed under nitrogen in amber glass bottles, ambient laboratory conditions, 3 hours"}, "[2]": {"conditions": "sealed under nitrogen in amber glass bottles, ambient laboratory conditions, 26 hours"}, "[3]": {"conditions": "sealed under nitrogen in amber glass bottles, ambient laboratory conditions, 74 hours"}, "[4]": {"conditions": "sealed under nitrogen in amber glass bottles, ambient laboratory conditions, 171 hours"}, "[5]": {"conditions": "sealed under nitrogen in amber glass bottles, ambient laboratory conditions, 171 hours, listed as Form 2"}, "[6]": {"conditions": "sealed under nitrogen in amber glass bottles, forced illumination, 0 hours"}, "[7]": {"conditions": "sealed under nitrogen in amber glass bottles, forced illumination, 3 hours"}, "[8]": {"conditions": "sealed under nitrogen in amber glass bottles, forced illumination, 26 hours"}, "[9]": {"conditions": "sealed under nitrogen in amber glass bottles, forced illumination, 74 hours"}, "[10]": {"conditions": "sealed under nitrogen in amber glass bottles, forced illumination, 171 hours"}, "[11]": {"conditions": "sealed under nitrogen in amber glass bottles, forced illumination, 171 hours, listed as Form 2"}, "[12]": {"conditions": "sealed under nitrogen in clear glass bottles, forced illumination"}, "[13]": {"conditions": "sealed under nitrogen in clear glass bottles, forced illumination, 0 hours"}, "[14]": {"conditions": "sealed under nitrogen in clear glass bottles, forced illumination, 3 hours"}, "[15]": {"conditions": "sealed under nitrogen in clear glass bottles, forced illumination, 26 hours"}, "[16]": {"conditions": "sealed under nitrogen in clear glass bottles, forced illumination, 74 hours"}, "[17]": {"conditions": "sealed under nitrogen in clear glass bottles, forced illumination, 171 hours"}, "[18]": {"conditions": "unsealed clear glass bottles, forced illumination"}, "[19]": {"conditions": "unsealed clear glass bottles, forced illumination, 0 hours"}, "[20]": {"conditions": "unsealed clear glass bottles, forced illumination, 3 hours"}, "[21]": {"conditions": "unsealed clear glass bottles, forced illumination, 26 hours"}, "[22]": {"conditions": "unsealed clear glass bottles, forced illumination, 74 hours"}, "[23]": {"conditions": "unsealed clear glass bottles, forced illumination, 171 hours"}},
  "data": [
    {"smiles": "O=C(NO)c1ccc(CNC(=O)c2[nH]c(-c3ccc(O)cc3)cc2-c2ccoc2)cc1", "note": "[QTX125 Form 2, 3-(3-Furyl)-N-{4-[(hydroxyamino)carbonyl]benzyl}-5-(4-hydroxyphenyl)-1H-pyrrole-2-carboxamide]", "values": [
      {"measurement": "HPLC peak area, QTX125 RRT 1.00", "setting": "[1]", "value": 97.35, "unit": "%"},
      {"measurement": "HPLC peak area, RRT 1.04", "setting": "[1]", "value": 1.06, "unit": "%"},
      {"measurement": "HPLC peak area, QTX125 RRT 1.00", "setting": "[2]", "value": 98.11, "unit": "%"},
      {"measurement": "HPLC peak area, RRT 1.04", "setting": "[2]", "value": 1.07, "unit": "%"},
      {"measurement": "HPLC peak area, QTX125 RRT 1.00", "setting": "[3]", "value": 98.83, "unit": "%"},
      {"measurement": "HPLC peak area, RRT 1.04", "setting": "[3]", "value": 0.55, "unit": "%"},
      {"measurement": "HPLC peak area, QTX125 RRT 1.00", "setting": "[4]", "value": 98.12, "unit": "%"},
      {"measurement": "HPLC peak area, RRT 1.04", "setting": "[4]", "value": 1.21, "unit": "%"},
      {"measurement": "HPLC peak area, QTX125 RRT 1.00", "setting": "[5]", "value": 98.12, "unit": "%"},
      {"measurement": "HPLC peak area, RRT 1.04", "setting": "[5]", "value": 1.21, "unit": "%"},
      {"measurement": "degradation (in words)", "setting": "sealed under nitrogen in amber glass bottles, ambient laboratory conditions", "value": "little evidence of degradation"},
      {"measurement": "HPLC peak area, QTX125 RRT 1.00", "setting": "[6]", "value": 98.21, "unit": "%"},
      {"measurement": "HPLC peak area, RRT 1.04", "setting": "[6]", "value": 0.98, "unit": "%"},
      {"measurement": "HPLC peak area, QTX125 RRT 1.00", "setting": "[7]", "value": 98.23, "unit": "%"},
      {"measurement": "HPLC peak area, RRT 1.04", "setting": "[7]", "value": 0.99, "unit": "%"},
      {"measurement": "HPLC peak area, QTX125 RRT 1.00", "setting": "[8]", "value": 97.82, "unit": "%"},
      {"measurement": "HPLC peak area, RRT 1.04", "setting": "[8]", "value": 1.22, "unit": "%"},
      {"measurement": "HPLC peak area, QTX125 RRT 1.00", "setting": "[9]", "value": 97.70, "unit": "%"},
      {"measurement": "HPLC peak area, RRT 1.04", "setting": "[9]", "value": 1.06, "unit": "%"},
      {"measurement": "HPLC peak area, QTX125 RRT 1.00", "setting": "[10]", "value": 95.40, "unit": "%"},
      {"measurement": "HPLC peak area, RRT 1.04", "setting": "[10]", "value": 2.55, "unit": "%"},
      {"measurement": "HPLC peak area, RRT 1.12", "setting": "[10]", "value": 0.28, "unit": "%"},
      {"measurement": "HPLC peak area, QTX125 RRT 1.00", "setting": "[11]", "value": 95.40, "unit": "%"},
      {"measurement": "HPLC peak area, RRT 1.04", "setting": "[11]", "value": 2.55, "unit": "%"},
      {"measurement": "HPLC peak area, RRT 1.12", "setting": "[11]", "value": 0.28, "unit": "%"},
      {"measurement": "degradation (in words)", "setting": "sealed under nitrogen in amber glass bottles, forced illumination", "value": "degrade slightly"},
      {"measurement": "colour change of the solid material", "setting": "[12]", "value": "change in colour from off white to dark green"},
      {"measurement": "HPLC peak area, QTX125 RRT 1.00", "setting": "[13]", "value": 98.21, "unit": "%"},
      {"measurement": "HPLC peak area, RRT 1.04", "setting": "[13]", "value": 0.98, "unit": "%"},
      {"measurement": "HPLC peak area, QTX125 RRT 1.00", "setting": "[14]", "value": 97.78, "unit": "%"},
      {"measurement": "HPLC peak area, RRT 1.04", "setting": "[14]", "value": 1.29, "unit": "%"},
      {"measurement": "HPLC peak area, QTX125 RRT 1.00", "setting": "[15]", "value": 96.16, "unit": "%"},
      {"measurement": "HPLC peak area, RRT 1.04", "setting": "[15]", "value": 2.16, "unit": "%"},
      {"measurement": "HPLC peak area, QTX125 RRT 1.00", "setting": "[16]", "value": 84.98, "unit": "%"},
      {"measurement": "HPLC peak area, RRT 1.04", "setting": "[16]", "value": 5.99, "unit": "%"},
      {"measurement": "HPLC peak area, RRT 1.08", "setting": "[16]", "value": 1.24, "unit": "%"},
      {"measurement": "HPLC peak area, RRT 1.11", "setting": "[16]", "value": 0.52, "unit": "%"},
      {"measurement": "HPLC peak area, RRT 1.20", "setting": "[16]", "value": 0.66, "unit": "%"},
      {"measurement": "HPLC peak area, QTX125 RRT 1.00", "setting": "[17]", "value": 82.33, "unit": "%"},
      {"measurement": "HPLC peak area, RRT 1.04", "setting": "[17]", "value": 9.95, "unit": "%"},
      {"measurement": "HPLC peak area, RRT 1.08", "setting": "[17]", "value": 0.41, "unit": "%"},
      {"measurement": "HPLC peak area, RRT 1.11", "setting": "[17]", "value": 0.86, "unit": "%"},
      {"measurement": "HPLC peak area, RRT 1.20", "setting": "[17]", "value": 0.22, "unit": "%"},
      {"measurement": "degradation (in words)", "setting": "[12]", "value": "degrade to two principal components"},
      {"measurement": "colour change of the solid material", "setting": "[18]", "value": "change in colour from off white to dark green"},
      {"measurement": "HPLC peak area, QTX125 RRT 1.00", "setting": "[19]", "value": 98.21, "unit": "%"},
      {"measurement": "HPLC peak area, RRT 1.04", "setting": "[19]", "value": 0.98, "unit": "%"},
      {"measurement": "HPLC peak area, QTX125 RRT 1.00", "setting": "[20]", "value": 97.68, "unit": "%"},
      {"measurement": "HPLC peak area, RRT 1.04", "setting": "[20]", "value": 1.38, "unit": "%"},
      {"measurement": "HPLC peak area, QTX125 RRT 1.00", "setting": "[21]", "value": 95.59, "unit": "%"},
      {"measurement": "HPLC peak area, RRT 1.04", "setting": "[21]", "value": 2.38, "unit": "%"},
      {"measurement": "HPLC peak area, QTX125 RRT 1.00", "setting": "[22]", "value": 90.53, "unit": "%"},
      {"measurement": "HPLC peak area, RRT 1.04", "setting": "[22]", "value": 4.90, "unit": "%"},
      {"measurement": "HPLC peak area, QTX125 RRT 1.00", "setting": "[23]", "value": 83.78, "unit": "%"},
      {"measurement": "HPLC peak area, RRT 1.04", "setting": "[23]", "value": 9.15, "unit": "%"},
      {"measurement": "HPLC peak area, RRT 1.12", "setting": "[23]", "value": 0.52, "unit": "%"},
      {"measurement": "degradation (in words)", "setting": "[18]", "value": "degrade to two principal components"}
    ]}
  ]
}
